From patent US7622500B2, “Antiparasitic agents” (Pfizer Limited, priority 2007, dated 2009)

System: Haemonchus contortus L3
Test: Haemonchus contortus L3 (HcL3) in vitro test
Assay type: cell-based
Details: minimum effective dose, exsheathed L3 larvae, 37° C., observed 2 hrs to 4 days, dose responses 100-0.1 μg/ml, n=2, read-out: H.c. (L3) MED
Description: The Haemonchus contortus L3 (HcL3) test is used to measure the biological activities of the compounds claimed. The assay involves in vitro testing against H. contortus conducted according to the following general procedure.
HcL3 larvae were collected from infected sheep and, after cleaning, stored in water at 12° C. for up to one month. Viable infective larvae were exsheathed using 10% hypochlorite in Glucose Tyrodes balanced salt solution containing antibiotics and resuspended in basal medium (20 g/l bacto-tryptone, 5 g/l yeast extract, 57 g/l glucose, 0.8 g/l di-Potassium hydrogen orthophosphate, 0.8 g/l potassium dihydrogen orthophosphate and […] Hepes with antibiotics). 95 μl worm suspension was added to each well of a 96 well plate.
Test compounds were dissolved in dimethylsulfoxide to give a working stock solution of 20 mg/ml. The stock concentration was diluted 1:10 in Basal media to give 2.0 mg/ml (10% DMSO). 5 μl of the stock compound solution was added to the worm suspension to give a final concentration of 100 μg/ml. Plates were sealed with pressure sensitive film and incubated at 37° C. Observations were made 2 hrs, 24 hrs, 48 hrs, 72 hrs and 4 days post-treatment using an inverted microscope. Activity was recorded if a significant proportion of the worms were dead or adversely affected by the compound when compared to the control well containing 1% DMSO. Compounds were initially tested at 100 μg/ml, wherefrom relevant dose responses (100, 30, 10, 3, 1, 0.3, 0.1 μg/ml) were conducted in duplicate experiments to generate n=2. Data was recorded as minimum effective dose.

| SMILES | minimal effective concentration |
| --- | --- |
| CC(C#N)(NC(=O)c1ccc(OC(F)(F)F)cc1)C1Cc2cc(C#N)ccc2O1 (centres unmarked) [Example 1a, N-[1-Cyano-1-(5-cyano-2,3-dihydro-1-benzofuran-2-yl)ethyl]-4-(trifluoromethoxy)benzamide] | 3 µg/mL |
| CC(C#N)(NC(=O)c1ccc(SC(F)(F)F)cc1)C1Cc2cc(C#N)ccc2O1 (centres unmarked) [Example 2, N-[1-Cyano-1-(5-cyano-2,3-dihydro-1-benzofuran-2-yl)ethyl]-4-[(trifluoromethyl)thio]benzamide] | 3 µg/mL |
| CC(C#N)(NC(=O)c1ccc(OC(F)(F)F)cc1)C1Cc2ccccc2O1 (centres unmarked) [Example 3, N-[1-Cyano-1-(2,3-dihydro-1-benzofuran-2-yl)ethyl]-4-(trifluoromethoxy)benzamide] | 30 µg/mL |
| CC(C#N)(NC(=O)c1ccc(C(F)(F)F)cc1)C1Cc2cc(Cl)ccc2O1 (centres unmarked) [Example 5, N-[1-(5-Chloro-2,3-dihydro-1-benzofuran-2-yl)-1-cyanoethyl]-4-(trifluoromethyl)benzamide] | 30 µg/mL |
| CC(C#N)(NC(=O)c1ccc(OC(F)(F)F)cc1)C1Cc2cccc(C#N)c2O1 (centres unmarked) [Example 6, N-[1-Cyano-1-(7-cyano-2,3-dihydro-1-benzofuran-2-yl)ethyl]-4-(trifluoromethoxy)benzamide] | 10 µg/mL |
| CC(C#N)(NC(=O)c1ccc(SC(F)(F)F)cc1)C1Cc2cccc(C#N)c2O1 (centres unmarked) [Example 7, N-[1-Cyano-1-(7-cyano-2,3-dihydro-1-benzofuran-2-yl)ethyl]-4-[(trifluoromethyl)thio]benzamide] | 10 µg/mL |
| CC(C#N)(NC(=O)c1ccc(OC(F)(F)F)cc1)C1Cc2cc(C#N)cc(Cl)c2O1 (centres unmarked) [Example 8, N-[1-(7-Chloro-5-cyano-2,3-dihydro-1-benzofuran-2-yl)-1-cyanoethyl]-4-(trifluoromethoxy)benzamide] | < 1 µg/mL |
| CC(C#N)(NC(=O)c1ccc(S(F)(F)(F)(F)F)cc1)C1Cc2cc(C#N)cc(Cl)c2O1 (centres unmarked) [Example 9, N-[1-(7-Chloro-5-cyano-2,3-dihydro-1-benzofuran-2-yl)-1-cyanoethyl]-4-(pentafluorothio)benzamide] | < 1 µg/mL |
